# Results reported in PubChem BioAssay (NCI).
#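 Five concentrations, 48 hours, 96-well plates. TGI: concentration producing complete growth inhibition.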
# Legend:
# Test in all cases: growth of human tumour cells (NCI), 48 h
# [1] = system: HCT-15 colon
# [2] = system: ACHN renal
# [3] = system: HCC-2998 colon
# [4] = system: HOP-18 NSCLC
# [5] = system: EKVX NSCLC
# [6] = system: UO-31 renal
# [7] = system: SF-268 CNS
# [8] = system: OVCAR-4 ovarian
# [9] = system: DMS 273 small cell lung
# [10] = system: SF-539 CNS
# [11] = system: KM12 colon
# [12] = system: SNB-19 CNS
# [13] = system: SNB-78 CNS
# [14] = system: TK-10 renal
# [15] = system: SW-620 colon
# [16] = system: SF-295 CNS
# [17] = system: SN12C renal
# [18] = system: DLD-1 colon
# [19] = system: HOP-92 NSCLC
# [20] = system: K-562 leukemia
# [21] = system: RPMI-8226 leukemia
# [22] = system: NCI-H460 lung
# [23] = system: OVCAR-5 ovarian
# [24] = system: SK-MEL-5 melanoma
# [25] = system: LXFL 529 NSCLC
# [26] = system: RXF 393 renal
# [27] = system: HL-60(TB) leukemia
# [28] = system: OVCAR-8 ovarian
# [29] = system: MALME-3M melanoma
# [30] = system: HOP-62 NSCLC
# [31] = system: LOX IMVI melanoma
# [32] = system: A549 NSCLC
# [33] = system: UACC-62 melanoma
# [34] = system: 786-0 renal
# [35] = system: RXF-631 renal
# [36] = system: M14 melanoma
# [37] = system: IGROV1 ovarian
# [38] = system: KM20L2 colon
# [39] = system: NCI-H23 lung
# [40] = system: U251 CNS
# [41] = system: OVCAR-3 ovarian
# [42] = system: M19-MEL melanoma
# [43] = system: MOLT-4 leukemia
# [44] = system: HCT-116 colon
# [45] = system: SNB-75 CNS
# [46] = system: COLO 205 colon
# [47] = system: CCRF-CEM leukemia
# [48] = system: SK-OV-3 ovarian
# [49] = system: DMS 114 small cell lung
# [50] = system: SK-MEL-2 melanoma
# [51] = system: CAKI-1 renal
# [52] = system: A498 renal
# [53] = system: SK-MEL-28 melanoma
# [54] = system: HT29 colon
# [55] = system: NCI-H522 lung
# [56] = system: SR leukemia
# [57] = system: UACC-257 melanoma
# [58] = system: NCI-H226 lung
structure (smiles),measurement,setting,value
CC(=O)/C=C\C1CC2C=CC1C2 (stereo not given),TGI,[1],> 100 µM
same,TGI,[2],> 100 µM
same,TGI,[3],73.2 µM
same,TGI,[4],> 100 µM
same,TGI,[5],> 100 µM
same,TGI,[6],> 100 µM
same,TGI,[7],76.1 µM
same,TGI,[8],> 100 µM
same,TGI,[9],> 100 µM
same,TGI,[10],> 100 µM
same,TGI,[11],> 100 µM
same,TGI,[12],> 100 µM
same,TGI,[13],73.5 µM
same,TGI,[14],> 100 µM
same,TGI,[15],> 100 µM
same,TGI,[16],> 100 µM
same,TGI,[17],> 100 µM
same,TGI,[18],> 100 µM
same,TGI,[19],79.9 µM
same,TGI,[20],> 100 µM
same,TGI,[21],> 100 µM
same,TGI,[22],> 100 µM
same,TGI,[23],> 100 µM
same,TGI,[24],> 100 µM
same,TGI,[25],> 100 µM
same,TGI,[26],> 100 µM
same,TGI,[27],99.7 µM
same,TGI,[28],> 100 µM
same,TGI,[29],> 100 µM
same,TGI,[30],> 100 µM
same,TGI,[31],65.4 µM
same,TGI,[32],> 100 µM
same,TGI,[33],> 100 µM
same,TGI,[34],> 100 µM
same,TGI,[35],> 100 µM
same,TGI,[36],> 100 µM
same,TGI,[37],> 100 µM
same,TGI,[38],> 100 µM
same,TGI,[39],> 100 µM
same,TGI,[40],> 100 µM
same,TGI,[41],> 100 µM
same,TGI,[42],> 100 µM
same,TGI,[43],66.1 µM
same,TGI,[44],54.5 µM
same,TGI,[45],72.2 µM
same,TGI,[46],> 100 µM
same,TGI,[47],70.3 µM
same,TGI,[48],> 100 µM
same,TGI,[49],82.8 µM
same,TGI,[50],> 100 µM
O=C1CCC(c2nc3cc(Cl)ccc3o2)C(=O)N1 (stereo not given),TGI,[1],> 100 µM
same,TGI,[2],> 100 µM
same,TGI,[3],> 100 µM
same,TGI,[4],> 100 µM
same,TGI,[5],> 100 µM
same,TGI,[6],> 100 µM
same,TGI,[7],> 100 µM
same,TGI,[8],> 100 µM
same,TGI,[9],> 100 µM
same,TGI,[10],> 100 µM
same,TGI,[11],> 100 µM
same,TGI,[12],> 100 µM
same,TGI,[13],> 100 µM
same,TGI,[14],> 100 µM
same,TGI,[15],> 100 µM
same,TGI,[16],> 100 µM
same,TGI,[17],> 100 µM
same,TGI,[51],> 100 µM
same,TGI,[18],> 100 µM
same,TGI,[19],> 100 µM
same,TGI,[52],> 100 µM
same,TGI,[53],> 100 µM
same,TGI,[20],> 100 µM
same,TGI,[22],> 100 µM
same,TGI,[23],> 100 µM
same,TGI,[54],> 100 µM
same,TGI,[24],> 100 µM
same,TGI,[25],> 100 µM
same,TGI,[26],> 100 µM
same,TGI,[55],> 100 µM
same,TGI,[27],> 100 µM
same,TGI,[28],> 100 µM
same,TGI,[29],> 100 µM
same,TGI,[30],> 100 µM
same,TGI,[31],> 100 µM
same,TGI,[32],> 100 µM
same,TGI,[33],> 100 µM
same,TGI,[34],> 100 µM
same,TGI,[56],> 100 µM
same,TGI,[57],> 100 µM
same,TGI,[35],> 100 µM
same,TGI,[36],> 100 µM
same,TGI,[37],> 100 µM
same,TGI,[38],> 100 µM
same,TGI,[39],> 100 µM
same,TGI,[40],> 100 µM
same,TGI,[41],> 100 µM
same,TGI,[42],> 100 µM
same,TGI,[43],> 100 µM
same,TGI,[44],> 100 µM
same,TGI,[45],> 100 µM
same,TGI,[46],> 100 µM
same,TGI,[47],> 100 µM
same,TGI,[48],> 100 µM
same,TGI,[49],> 100 µM
same,TGI,[58],> 100 µM
same,TGI,[50],> 100 µM
Cc1cc(C)nc(NS(=O)(=O)c2ccc(NC(=O)c3ccc(Cl)c4c(Nc5ccc(S(=O)(=O)Nc6cc(C)on6)cc5)c5ccccc5nc34)cc2)n1,TGI,[2],36.1 µM
same,TGI,[3],33 µM
same,TGI,[4],29.2 µM
same,TGI,[5],33.9 µM
same,TGI,[6],31.7 µM
same,TGI,[7],28.9 µM
same,TGI,[8],30.7 µM
same,TGI,[9],31.9 µM
same,TGI,[10],34.6 µM
same,TGI,[11],33.7 µM
same,TGI,[12],30.8 µM
same,TGI,[13],37.2 µM
same,TGI,[14],32.3 µM
same,TGI,[15],33.1 µM
same,TGI,[16],32.7 µM
same,TGI,[17],36.5 µM
same,TGI,[51],29.5 µM
same,TGI,[18],31.6 µM
same,TGI,[19],30.3 µM
same,TGI,[52],29.1 µM
same,TGI,[53],32.9 µM
same,TGI,[20],68.5 µM
same,TGI,[21],50.3 µM
same,TGI,[22],36.3 µM
same,TGI,[23],35.7 µM
same,TGI,[54],35.8 µM
same,TGI,[24],30 µM
same,TGI,[25],30.7 µM
same,TGI,[26],28 µM
same,TGI,[55],31.8 µM
same,TGI,[27],27.2 µM
same,TGI,[28],30.9 µM
same,TGI,[29],40 µM
same,TGI,[30],30.6 µM
same,TGI,[31],30 µM
same,TGI,[32],40.7 µM
same,TGI,[33],32.3 µM
same,TGI,[34],30.9 µM
same,TGI,[57],32.2 µM
same,TGI,[35],33.7 µM
same,TGI,[36],36.3 µM
same,TGI,[37],37.3 µM
same,TGI,[38],32.6 µM
same,TGI,[39],29.7 µM
same,TGI,[40],28.9 µM
same,TGI,[41],30.4 µM
same,TGI,[42],39.7 µM
same,TGI,[43],70.9 µM
same,TGI,[44],39.9 µM
same,TGI,[46],32.3 µM
same,TGI,[48],35.9 µM
same,TGI,[49],32.6 µM
same,TGI,[58],32.9 µM
